Laboratory results reported in publication PMC10094418, “Butein Inhibits Cell Growth by Blocking the IL-6/IL-6Rα Interaction in Human Ovarian Cancer and by Regulation of the IL-6/STAT3/FoxO3a Pathway” (International Journal of Molecular Sciences, 2023).

Columns and labels:
IL-6/IL-6Rα interaction = target: T1, IL-6/IL-6Rα interaction (Homo sapiens, UniProt P05231); test: ELISA of the IL-6/IL-6Rα interaction; type: binding; conditions: at 20 μM
T1 construct: purchased BioLegend (IL-6); Acro biosystems (IL-6Ra) 570806 (IL-6); ILR-H5259 (IL-6Ra)
Method: An amount of 0.5 μg/mL rhIL-6 protein (Cat.no.570806, BioLegend) was coated onto 96-well ELISA plates at 4 °C overnight, and then the plates were washed with PBST (1 × PBS containing 0.05% Tween-20), followed by the addition of PBSA (1 × PBS containing 1% bovine serum albumin (BSA)) (Bovogen, East Keilor, Australia) for 1 h at room temperature. After blocking, the FDA-approved compounds (20 uM) (Cat.no. L-1300, Selleckchem, Houston, TX, USA) were incubated for 2 h at room temperature. After washing three times with PBST, 0.2 μg/mL recombinant IL-6Ra protein (Cat.no.ILR-H5259, Acro biosystems, Newark, DE, USA) was added to the plates, which were incubated for 1 h. After washing three times with PBST, HRP-conjugated goat anti-human IgG Ab (Cat.no. 10-035-098, Jackson Immno, Hatfield, West Grove, PA, USA) was added to the plates and incubated for 1 h. After washing three times with PBST, TMB solution (Cat.no.11684302001, Roche, Mannheim, Germany) was added to the plates and incubated for 15 min. Then, stop solution (2N HCl) was added to the plates. The absorbance was measured at 450 nm using the Epoch microplate spectrophotometer (BioTek instruments, Winooski, VT, USA).

IL-6Rα = target: T2, IL-6Rα (Homo sapiens, UniProt P08887); test: Surface plasmon resonance, immobilized IL-6Rα; type: binding; conditions: SPR, CM5 chip, steady-state KD
T2 construct: purchased PeproTech
T2 sequence (P08887 20-468): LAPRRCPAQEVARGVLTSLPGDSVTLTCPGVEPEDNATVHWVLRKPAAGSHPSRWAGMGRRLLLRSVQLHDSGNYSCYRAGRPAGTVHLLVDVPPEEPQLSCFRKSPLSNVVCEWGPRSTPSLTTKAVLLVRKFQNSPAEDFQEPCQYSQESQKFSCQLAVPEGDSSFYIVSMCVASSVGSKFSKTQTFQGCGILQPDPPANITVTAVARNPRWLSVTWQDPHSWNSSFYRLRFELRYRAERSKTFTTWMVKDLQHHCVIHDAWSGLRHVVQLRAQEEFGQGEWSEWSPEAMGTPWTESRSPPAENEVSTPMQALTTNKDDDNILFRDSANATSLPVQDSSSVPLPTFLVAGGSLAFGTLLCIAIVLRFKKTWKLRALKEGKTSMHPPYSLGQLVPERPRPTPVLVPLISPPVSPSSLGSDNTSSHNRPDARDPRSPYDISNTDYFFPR
Method: The surface plasmon resonance (SPR) assay was measured using the BIAcore T200 model (GE Healthcare, Chicago, IL, USA) with HBS-EP buffer (1×HBS-EP, GE Healthcare, Chicago, IL, USA) containing 5% dimethyl sulfoxide (DMSO; Sigma-Aldrich, St. Louis, MO, USA). The pH scouting for IL-6 (PeproTech, Rocky Hill, NJ, USA), IL-6Rα (PeproTech, Rocky Hill, NJ, USA), and gp130 (Sino Biological, Beijing, China, or ANRT, Daejeon, Korea) immobilization was performed in 10 mM acetate buffer at pH 4.5. IL-6, IL-6Rα, and gp130 were immobilized on a CM5 chip at 750, 1200, and 2000 response units (RU). Butein was injected into the IL-6, IL-6Rα and gp130-immobilized flow cell at concentrations of 10, 20, 30, 40, 50, 60, 70, 80, 90, and 100 μM with a 25 μL/min flow rate for 150 s and allowed to dissociate for 300 s. Steady-state KD was determined via the T-200 BIAevaluation software (GE Healthcare, Chicago, IL, USA).

SKOV3 cells [1] = test: Cell viability by MTT assay, SKOV3; type: cell-based; conditions: Homo sapiens, SK-OV-3, 48 h
Method: A2780 and SKOV3 cell lines were purchased from the European Collection of Cell Cultures (ECACC, London, UK) and Korean Cell Line Bank (KCLB, Seoul, Republic of Korea) respectively. Each cell line was seeded in a 96-well plate at an appropriate cell number (3000 cells/100 μL in each well). After 24 h, butein was added to the plates at each of the following concentrations, 0, 3.125, 6.25, 12.5, 25, and 50 μM, in triplicate in the presence of serum medium. After 48 h, 100 μL of […] (Sigma-Aldrich, St. Louis, MO, USA) solubilizing solution was added to each well and incubated for 4 h. The solution was then aspirated, and 100 μL of DMSO was added for cell lysis. The spectrophotometric absorbance was measured at 540 nm. Half of the maximum inhibitory concentration (IC50) was determined using GraphPad Prism software (version 7.0).

SKOV3 cells [2] = test: Annexin V apoptosis assay, SKOV3; type: cell-based, human; conditions: dose-dependent, p < 0.005
Method: A2780 and SKOV3 cell lines were treated with control (siltuximab 10 μM) and butein (5, 10, and 25 μM). After 6 h, the cells were fixed with 70% ethanol for cell cycle analysis and stained with propidium iodide (PI). Cell death was analyzed using the FITC Annexin V Apoptosis Detection kit with 7-AAD (Cat.no. 640922, BioLegend, San Diego, CA, USA). Cells were sorted using a FACS Canto II (BD Biosciences, Franklin Lakes, NJ, USA) and cell cycle and apoptosis were analyzed using BD FACS Diva software version 6. 2. Analysis (BD Biosciences, Franklin Lakes, NJ, USA) was performed in triplicate.

[3] = test system: STAT3 phosphorylation in SKOV3 cells; test: Western blotting of STAT3 phosphorylation, SKOV3; type: cell-based, human; conditions: relative to IL-6 treated cells
Method: After each drug treatment of the cells, the cells were dissolved in 100 μL of radioimmunoprecipitation assay (RIPA) buffer (Thermo Fisher Scientific Inc., Waltham, MA, USA) and centrifuged to separate the supernatant containing protein. Isolated protein concentrations were measured using the Pierce BCA Protein Assay Kit (Thermo Fisher Scientific Inc., Waltham, MA, USA). Aliquots of proteins quantified at […] were boiled at 100 °C in 5× sample buffer, separated on a 12% SDS-polyacrylamide gel and electrophoresed onto polyvinylidene difluoride (PDVF) membranes (Millipore, Billerica, MA, USA). The PDVF membranes were blocked for 1 h at 25 °C with 5% BSA in 1× tris buffered saline containing 0.05% Tween20 (TBST) (Sigma-Aldrich, St. Louis, MO, USA). The membrane was incubated in the primary antibody at 4 °C overnight. PDVF membranes were washed with 1× TBST and incubated with AffiniPure goat anti-rabbit IgG secondary antibody (Jackson Immunoresearch, West Grove, PA, USA) for 1 h at room temperature. After washing again with TBST buffer, enhanced signals were detected using the SuperSignal™ West Femto Maximum Sensitivity Substrate kit (cat.no. 34094, Thermo Scientific, Rockford, IL, USA). The blot was imaged using the ChemiDoc imaging system (Bio-Rad, Herles, CA, USA), and protein expression was quantified with the ImageJ software (v1.8.0).

T1 sequence (P05231 30-212): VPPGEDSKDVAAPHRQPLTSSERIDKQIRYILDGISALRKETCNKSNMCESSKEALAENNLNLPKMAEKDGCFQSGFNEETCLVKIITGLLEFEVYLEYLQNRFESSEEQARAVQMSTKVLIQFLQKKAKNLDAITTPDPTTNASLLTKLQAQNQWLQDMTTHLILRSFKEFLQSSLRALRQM

O=C(/C=C/c1ccc(O)c(O)c1)c1ccc(O)cc1O [butein]
Reduction of the interaction between IL-6 and IL-6Rα (IL-6/IL-6Rα interaction): 21.7% | Kd (IL-6Rα): 435 µM | IC50 (SKOV3 cells [1]): 175 ± 61.9 µM | Total apoptosis, SKOV3 (SKOV3 cells [2]): significantly increase | Phosphorylation of STAT3, SKOV3 [3]: inhibited in a concentration-dependent manner
